Data reported in patent publication US11844801B2, “Oral compositions of MK2 pathway inhibitor for treatment of immune conditions” (priority 2020, dated 2023).

Test system: IL-6
Test: Ex vivo LPS-stimulated IL-6 in blood of dosed healthy subjects, PK/PD inhibitory Emax model
Design: species or system human
Protocol: Blood samples of 10 mL were collected for PD analysis. For the SAD cohorts, blood was collected before dosing and 1, 12, and 24 hours after dosing. For the MAD cohorts, on day 1 blood was collected before the morning dose and 4 and 12 hours after the morning dose (prior to the evening dose); on day 7, blood was collected before the morning dose and 4 and 12 hours after the morning dose.
Additional details of the assays for analyzing p-HSP27 and cytokines are included in the Supplementary Information.
Pharmacodynamics. PD data analysis was conducted using Microsoft Excel 2010 (Microsoft, Redmond, WA), Meso Scale Discovery Workbench® analysis software (Rockville, MD), and Phoenix WinNonlin, version 8.2.
Sample Preparation for Cytokine Analysis. For each sample, 180 μL aliquots were transferred into 7 wells of a round bottom 96 well tissue culture polystyrene low evaporation plate. […] No outer wells on the plates were used and all wells surrounding the samples contained 200 μL of phosphate buffered saline.
DMSO was added to all wells in groups ‘A’ and ‘C’ to a final concentration of 0.1% ([…] of a 2% DMSO solution in DMEM containing 10% FBS and 1% penicillin/streptomycin/glutamine). […] Samples were mixed gently for 30 seconds on a plate shaker using pin tools, then placed in an incubator at 37° C./5% CO2 for 1 hour.
Samples in groups ‘A’ and ‘B’ were stimulated with lipopolysaccharide at a final concentration of 100 ng/mL. A stock solution of lipopolysaccharide at 1 mg/mL in DMEM containing 10% FBS and 1% penicillin/streptomycin was diluted to […] in DMEM containing 10% FBS and 1% penicillin/streptomycin, and […] of this working solution was added per well of blood for all samples in groups ‘A’ and ‘B’. […] of DMEM containing 10% FBS only was added per well of blood for all samples in group ‘C’ (unstimulated samples). Samples were mixed gently for 30 seconds on a plate shaker using pin tools, then placed in an incubator at 37° C./5% CO2 for 5 hours.
Following the incubation, the plates were removed from the incubator and sealed with adhesive clear plate seals. The plates were then centrifuged for 10 minutes at 1800×g at room temperature. […] of plasma was removed from each well and transferred to a 96-well polypropylene round bottom master plate, which was then sealed and frozen at −80° C. until all samples from the respective cohort were generated. Once all samples from a given cohort were generated, the samples were analyzed for cytokine (TNF-α, IL-1b, IL-6, and IL-8) production using Meso Scale Discovery Technology.
Analysis of Cytokine Levels Using Meso Scale Discovery Technology. All lipopolysaccharide plasma samples were analyzed for cytokine production with a V-Plex Human Proinflammatory Panel II (4-Plex) Kit from Meso Scale Discovery (Rockville, MD). The master plates containing the plasma samples were thawed on ice, and a daughter plate consisting of a 25-fold dilution of each plasma sample (3 μL of plasma plus 72 μL of Meso Scale Discovery Diluent 2) was generated for each master plate. The diluted plasma samples from the daughter plates were used in the cytokine analysis. The Meso Scale Discovery 4-plex plates were washed 3 times with 150 μL/well of wash buffer (1×KPL phosphate buffered saline with Tween 20 from SeraCare [Milford, MA]). Prepared calibrators and the samples from the daughter plates were added to the washed Meso Scale Discovery 4-plex plates at 50 μL/well. The 4-plex plates were sealed and shaken overnight at 4° C.
After the overnight incubation, the samples were removed by decanting. The 4-plex plates were then washed 3 times with 150 μL/well of wash buffer. […]

With `Cc1cnc(-c2ccnc(C(C)(C)O)n2)cc1-n1c(C)cc(OCc2ncc(F)cc2F)c(Cl)c1=O` (single isomer, unassigned) [ATI-450, 3-chloro-4-((3,5-difluoropyridin-2-yl)methoxy)-2′-(2-(2-hydroxypropan-2-yl)pyrimidin-4-yl)-5′,6-dimethyl-2H-[1,4′-bipyridin]-2-one] the “Cmax (Multiple of IC80)” value (50 mg BID, day 7) was 0.3x, the “Ctrough (Multiple of IC80)” value (50 mg BID, day 7) was 0.1x and the inhibition at 50 mg (Homo sapiens, 50 mg BID, part of the dosing interval) was over 50%. The IC80 (Homo sapiens, calculated from IC50, combined SAD and MAD data, read-out: IC80, plasma concentration at 80% of maximal inhibition) was 0.748 µg/mL, the IC50 (Homo sapiens, inhibitory Emax model, combined SAD and MAD data, read-out: IC50, plasma concentration at half maximal inhibition) was 0.187 µg/mL and the “IC80, plasma concentration at 80% of maximal inhibition” value (calculated from IC50, combined SAD and MAD data) was 0.7478 µg/mL.
